ChEMBL document CHEMBL3352140, “Targeting the PPM1D phenotype; 2,4-bisarylthiazoles cause highly selective apoptosis in PPM1D amplified cell-lines” (Bioorg Med Chem Lett, 2014)
pIC50: −log10 of the molar value. The source made the active and inactive calls. The rule behind the calls is not given here.

Legend:
Protein phosphatase 1D = molecular target: T1, Protein phosphatase 1D (Homo sapiens, UniProt O15297); assay: Inhibition of PPM1D (unknown origin) phosphatase activity using peptide substrate TDDEMT*GY*VAT by malachite green/molybdate based assay
T1 sequence (O15297 whole entry): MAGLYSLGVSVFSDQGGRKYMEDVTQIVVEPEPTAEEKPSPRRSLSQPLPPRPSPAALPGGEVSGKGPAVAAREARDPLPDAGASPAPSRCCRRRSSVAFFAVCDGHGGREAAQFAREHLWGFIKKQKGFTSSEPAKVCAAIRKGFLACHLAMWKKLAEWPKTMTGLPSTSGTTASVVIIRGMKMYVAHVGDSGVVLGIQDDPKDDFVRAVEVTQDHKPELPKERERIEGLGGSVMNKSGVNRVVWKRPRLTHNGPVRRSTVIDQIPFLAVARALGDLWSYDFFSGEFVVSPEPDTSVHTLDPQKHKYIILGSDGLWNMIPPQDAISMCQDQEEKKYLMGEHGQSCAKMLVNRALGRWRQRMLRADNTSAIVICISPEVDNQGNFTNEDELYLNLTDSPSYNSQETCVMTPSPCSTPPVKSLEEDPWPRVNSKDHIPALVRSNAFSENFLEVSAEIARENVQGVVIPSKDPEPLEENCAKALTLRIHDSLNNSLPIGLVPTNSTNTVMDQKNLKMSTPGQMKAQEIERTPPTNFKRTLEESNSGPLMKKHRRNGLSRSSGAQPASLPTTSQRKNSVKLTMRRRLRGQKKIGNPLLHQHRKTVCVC

[1] = Anticancer activity against human SMOV2 cells after 3 days incubation by SRB proliferation assay; format: functional; conditions: SMOV2, 72 h
[2] = Anticancer activity against human TOV21G cells after 3 days incubation by SRB proliferation assay; format: functional; conditions: 72 h
[3] = Anticancer activity against human SMOV2 cells after 5 days incubation by SRB proliferation assay; format: functional; conditions: SMOV2, 120 h
[4] = Anticancer activity against human TOV21G cells after 5 days incubation by SRB proliferation assay; format: functional; conditions: 120 h
SMOV2 = assay: Induction of apoptosis in human SMOV2 cells assessed as increase in PARP cleavage at 1.25 to 5 uM after 24 hrs by Western blot analysis; format: functional, cell-based
TOV21G = assay: Induction of apoptosis in […] human TOV21G cells assessed as increase in PARP cleavage at 1.25 to 5 uM after 24 hrs by Western blot analysis; format: functional, cell-based
[5] = molecular target: T2, Protein phosphatase 1D (Homo sapiens) (UniProt O15297); conditions: SMOV2, 1.25 to 5 uM
T2 sequence (whole entry): T1 sequence (O15297 whole entry)
Description: Inhibition of PPM1D in human SMOV2 cells assessed as increase in P-S15-p53 level at 1.25 to 5 uM after 24 hrs by Western blot analysis

[6] = molecular target: T2, Protein phosphatase 1D (Homo sapiens); conditions: TOV21G, 1.25 to 5 uM
Description: Inhibition of PPM1D in non-amplified human TOV21G cells assessed as increase in P-S15-p53 level at 1.25 to 5 uM after 24 hrs by Western blot analysis

[7] = Anticancer activity against PPM1D non-amplified human SMOV2 cells after 5 days incubation by SRB proliferation assay; format: functional; conditions: SMOV2, 120 h
[8] = Anticancer activity against […] human TOV21G cells after 5 days incubation by SRB proliferation assay; format: functional; conditions: 120 h
HeLa = assay: Anticancer activity against PPM1D non-amplified human HeLa cells after 5 days incubation by SRB proliferation assay; format: functional; conditions: 120 h
[9] = Anticancer activity against PPM1D non-amplified human CAMA1 cells after 5 days incubation by SRB proliferation assay; format: functional; conditions: CAMA-1, 120 h
MCF7 = assay: Anticancer activity against PPM1D amplified human MCF7 cells after 5 days incubation by SRB proliferation assay; format: functional; conditions: MCF7, 120 h
[10] = Anticancer activity against PPM1D amplified human KPL1 cells after 5 days incubation by SRB proliferation assay; format: functional; conditions: KPL-1, 120 h

SMILES	pIC50 (Protein phosphatase 1D)	GI50 [1]	GI50 [2]	also measured
O=c1[nH]c2ccc(-c3csc(-c4ccc(F)cc4)n3)cc2o1	4.64	0.13 µM	> 50 µM	GI50 [3]: 0.01 µM; GI50 [4]: > 50 µM; Activity (SMOV2): Active; Activity (TOV21G): inactive; inhibition [5]: Active; inhibition [6]: inactive
N#Cc1ccc(-c2nc(-c3ccc4[nH]c(=O)oc4c3)cs2)cc1	> 4.70			GI50 [3]: 2 µM; GI50 [4]: > 50 µM
O=c1[nH]c2ccc(-c3csc(-c4cccc(F)c4)n3)cc2o1	> 4.70			GI50 [3]: 0.85 µM; GI50 [4]: > 50 µM
O=c1[nH]c2ccc(-c3csc(-c4ccc(F)c(O)c4)n3)cc2o1	> 4.70	1.6 µM	> 50 µM	
COCCOCc1cc(F)ccc1-c1nc(-c2ccc3[nH]c(=O)oc3c2)cs1	> 4.70	0.002 µM	> 50 µM	
O=c1[nH]c2ccc(-c3csc(-c4ccc(F)cc4COCCN4CCCC4)n3)cc2o1	> 4.70	0.013 µM	> 50 µM	
NCCOCc1cc(F)ccc1-c1nc(-c2ccc3[nH]c(=O)oc3c2)cs1	> 4.70	0.003 µM	> 50 µM	
O=c1[nH]c2ccc(-c3csc(-c4ccc(F)cc4CN4CCOCC4)n3)cc2o1	> 4.70	0.52 µM	> 50 µM	
COc1cc(F)ccc1-c1nc(-c2ccc3[nH]c(=O)oc3c2)cs1	> 4.70	5.7 µM	> 50 µM	
Cc1cc(F)ccc1-c1nc(-c2ccc3c(c2)CC(=O)N3)cs1	> 4.70	0.002 µM	> 50 µM	
Cc1cc(F)ccc1-c1nc(-c2ccc3[nH]c(=O)oc3c2)cs1	< 4.00	0.002 µM	> 50 µM	
COCCOCc1cc(F)ccc1-c1nc(-c2ccc3[nH]c(=O)[nH]c3c2)cs1	> 4.70	0.013 µM	> 50 µM	GI50 [7]: 20 µM; GI50 [8]: 5.6 µM; GI50 (HeLa): 3.9 µM; GI50 [9]: 15 µM; GI50 (MCF7): 0.005 µM; GI50 [10]: 0.01 µM
Cc1ccc(-c2nc(-c3ccc4[nH]c(=O)oc4c3)cs2)cc1	> 4.70			GI50 [3]: 24 µM; GI50 [4]: > 50 µM
CN(C)CCc1cc(F)ccc1-c1nc(-c2ccc3[nH]c(=O)oc3c2)cs1	> 4.70	0.04 µM	> 50 µM	
Cc1cc(F)ccc1-c1nc(-c2ccc3[nH]c(=O)[nH]c3c2)cs1	> 4.70	0.001 µM	> 50 µM	

Continued, in another order:

pIC50 (Protein phosphatase 1D)	SMILES	GI50 [1]	GI50 [2]	also measured
> 4.70	Cc1cc(F)ccc1-c1nc(-c2ccc3c(c2)[nH]c(=O)n3CCN(C)C)cs1	> 50 µM	> 50 µM	
> 4.70	O=c1[nH]c2ccc(-c3csc(-c4ccncc4)n3)cc2o1			GI50 [3]: 2.8 µM; GI50 [4]: > 50 µM
> 4.70	Cc1cc(-c2nc(-c3ccc4[nH]c(=O)oc4c3)cs2)ccc1F	0.25 µM	> 50 µM	
> 4.70	Cc1cc(F)ccc1-c1nc(-c2ccc3[nH]c(=O)n(CCN(C)C)c3c2)cs1	0.003 µM	> 50 µM	
> 4.70	O=c1[nH]c2ccc(-c3csc(-c4ccc(F)c(C(F)(F)F)c4)n3)cc2o1	> 50 µM	> 50 µM	
> 4.70	O=c1[nH]c2ccc(-c3csc(-c4ccccc4)n3)cc2o1			GI50 [3]: 2 µM; GI50 [4]: > 50 µM
> 4.70	O=c1[nH]c2ccc(-c3csc(-c4ccc(F)c(F)c4)n3)cc2o1	0.29 µM	> 50 µM	
> 4.70	CCc1cc(F)ccc1-c1nc(-c2ccc3[nH]c(=O)oc3c2)cs1	0.013 µM	> 50 µM	
> 4.70	CN(C)Cc1cc(F)ccc1-c1nc(-c2ccc3[nH]c(=O)oc3c2)cs1	0.01 µM	> 50 µM	
> 4.70	O=c1[nH]c2ccc(-c3csc(-c4ccc(F)cc4CO)n3)cc2o1	0.023 µM	> 50 µM	
> 4.70	O=c1[nH]c2ccc(-c3csc(-c4ccc(Cl)cc4)n3)cc2o1			GI50 [3]: 0.63 µM; GI50 [4]: > 50 µM
